These results are taken from patent publication US20230373930A1, “AMINOIMIDAZOLE FPR2 AGONISTS” (BRISTOL-MYERS SQUIBB COMPANY, priority 2020, published 2023).

For orientation: EC50 means the concentration giving half of the maximal effect.

One test concerns the target T1, human FPR2 (Homo sapiens, UniProt P25090).
T1 sequence (P25090 1-351): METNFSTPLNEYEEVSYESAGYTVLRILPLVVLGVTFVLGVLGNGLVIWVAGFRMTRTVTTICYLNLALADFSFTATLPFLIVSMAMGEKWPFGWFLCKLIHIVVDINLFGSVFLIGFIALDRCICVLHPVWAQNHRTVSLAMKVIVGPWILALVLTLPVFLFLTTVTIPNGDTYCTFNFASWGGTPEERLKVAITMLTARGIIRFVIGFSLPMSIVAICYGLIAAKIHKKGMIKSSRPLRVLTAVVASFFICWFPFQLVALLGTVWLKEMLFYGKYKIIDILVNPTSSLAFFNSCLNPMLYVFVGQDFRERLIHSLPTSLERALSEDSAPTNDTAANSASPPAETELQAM
The experiment in a line: FPR2 cyclic adenosine monophosphate (cAMP) assay. Conditions: CHO cells overexpressing human FPR2; forskolin 5 μM; inhibition of cAMP production; HTRF; read-out: hFPR2 cAMP2 EC50. It counts as cell-based. Here is the method: (§1) FPR2 and FPR1 Cyclic Adenosine Monophosphate (cAMP) Assays. A mixture of forskolin (5 μM final for FPR2 or 10 μM final for FPR1) and IBMX (200 μM final) were added to 384-well Proxiplates (Perkin-Elmer) pre-dotted with test compounds in DMSO (1% final) at final concentrations in the range of 0.020 nM to 100 μM. Chinese Hamster Ovary cells (CHO) overexpressing human FPR1 or human FPR2 receptors were cultured in F-12 (Ham's) medium supplemented with 10% qualified FBS, 250 μg/ml zeocin and 300 μg/ml hygromycin (Life Technologies). Reactions were initiated by adding 2,000 human FPR2 cells per well or 4,000 human FPR1 cells per well in Dulbecco's PBS (with calcium and magnesium) (Life Technologies) supplemented with 0.1% BSA (Perkin-Elmer). The reaction mixtures were incubated for 30 min at room temperature. The level of intracellular cAMP was determined using the HTRF HiRange cAMP assay reagent kit (Cisbio) according to manufacturer's instruction. Solutions of cryptate conjugated anti-cAMP and d2 flurorophore-labelled cAMP were made in a supplied lysis buffer separately. Upon completion of the reaction, the cells were lysed with equal volume of the d2-cAMP solution and anti-cAMP solution. After a 1-h room temperature incubation, time-resolved fluorescence intensity was measured using the Envision (Perkin-Elmer) at 400 nm excitation and dual emission at 590 nm and 665 nm. A calibration curve was constructed with an external cAMP standard at concentrations ranging from 1 μM to 0.1 μM by plotting the fluorescent intensity ratio from 665 nm emission to the intensity from the 590 nm emission against cAMP concentrations. The potency and activity of a compound to inhibit cAMP production was then determined by fitting to a 4-parametric logistic equation from a plot of cAMP level versus compound concentrations.

The next test deals with T2, human FPR1 (Homo sapiens, UniProt P21462).
T2 sequence (P21462 1-350): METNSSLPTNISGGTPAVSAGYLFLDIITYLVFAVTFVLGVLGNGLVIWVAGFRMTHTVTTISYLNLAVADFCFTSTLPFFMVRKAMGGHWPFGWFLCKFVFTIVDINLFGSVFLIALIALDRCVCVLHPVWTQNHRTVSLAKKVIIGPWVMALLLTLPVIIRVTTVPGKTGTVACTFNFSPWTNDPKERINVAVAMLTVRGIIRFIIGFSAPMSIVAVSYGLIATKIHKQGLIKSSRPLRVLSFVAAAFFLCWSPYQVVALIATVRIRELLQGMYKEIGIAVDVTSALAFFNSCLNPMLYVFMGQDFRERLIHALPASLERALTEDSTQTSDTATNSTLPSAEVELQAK
In words: FPR1 cyclic adenosine monophosphate (cAMP) assay. It counts as cell-based. The note with it: CHO cells overexpressing human FPR1; forskolin 10 μM; inhibition of cAMP production; HTRF; read-out: hFPR1 cAMP2 EC50. The method, then:
as §1

As for `COc1cc(F)c(-n2cc(-c3ccccc3)nc2NC(=O)c2ccc(OC(F)F)cc2)c(F)c1` [Example 1, N-[1-(2,6-Difluoro-4-methoxyphenyl)-4-phenyl-1H-imidazol-2-yl]-4-(difluoromethoxy)benzamide], the EC50 at human FPR2 was found to be 4 nM; at human FPR1, 200 nM.
Taken in the same sequence, the figures for `COc1ccc(-n2cc(-c3ccccc3)nc2NC(=O)c2ccc(OC(F)F)cc2)cc1` [Example 2, 4-(Difluoromethoxy)-N-[1-(4-methoxyphenyl)-4-phenyl-1H-imidazol-2-yl]benzamide] were 3 nM and 38 nM.
Consider `COc1cccc(-c2cn(-c3c(F)cc(OC)cc3F)c(NC(=O)c3ccc(OC(F)F)cc3)n2)c1` [Example 3, N-[1-(2,6-Difluoro-4-methoxyphenyl)-4-(3-methoxyphenyl)-1H-imidazol-2-yl]-4-(difluoromethoxy)benzamide], for which the figures for the EC50 on human FPR2 and on human FPR1 were 8 nM and 88 nM, respectively.
For `COc1cc(F)c(-n2cc(-c3ccc(F)cc3)nc2NC(=O)c2ccc(OC(F)F)cc2)c(F)c1` [Example 4, N-[1-(2,6-Difluoro-4-methoxyphenyl)-4-(4-fluorophenyl)-1H-imidazol-2-yl]-4-(difluoromethoxy)benzamide], the values for the EC50 at human FPR2 and at human FPR1 were 11 nM and 400 nM, respectively.
Taken in the same sequence, the figures for `COc1cc(F)c(-n2cc(-c3ccc(Cl)c(C)c3)nc2NC(=O)c2ccc(OC(F)F)cc2)c(F)c1` [Example 5, N-[4-(4-Chloro-3-methylphenyl)-1-(2,6-difluoro-4-methoxyphenyl)-1H-imidazol-2-yl]-4-(difluoromethoxy)benzamide] were 47 nM and 140 nM.
In the case of `COc1cc(F)c(-n2cc(-c3ccc(C(F)(F)F)cc3)nc2NC(=O)c2ccc(OC(F)F)cc2)c(F)c1` [Example 6, N-[1-(2,6-Difluoro-4-methoxyphenyl)-4-[4-(trifluoromethyl)phenyl]-1H-imidazol-2-yl]-4-(difluoromethoxy)benzamide], the EC50 at human FPR2 was 76 nM; at human FPR1, 120 nM.
In the same order, the values of `COc1cc(F)c(-n2cc(-c3ccc(OC(F)F)cc3)nc2NC(=O)c2ccc(OC(F)F)cc2)c(F)c1` [Example 7, N-[1-(2,6-Difluoro-4-methoxyphenyl)-4-[4-(difluoromethoxy)phenyl]-1H-imidazol-2-yl]-4-(difluoromethoxy)benzamide] are 33 nM and 190 nM.
Taken in the same sequence, the figures for `COc1cc(F)c(-n2c(NC(=O)c3ccc(OC(F)F)cc3)nc(-c3ccccc3)c2C)c(F)c1` [Example 8, N-[1-(2,6-Difluoro-4-methoxyphenyl)-5-methyl-4-phenyl-1H-imidazol-2-yl]-4-(difluoromethoxy)benzamide] were 8 nM and 230 nM.
In the case of `COc1cc(F)c(-n2cc(-c3ccc4ccccc4c3)nc2NC(=O)c2ccc(OC(F)F)cc2)c(F)c1` [Example 9, N-[1-(2,6-Difluoro-4-methoxyphenyl)-4-(naphthalen-2-yl)-1H-imidazol-2-yl]-4-(difluoromethoxy)benzamide], the EC50 at human FPR2 is 220 nM; at human FPR1, 460 nM.
`COc1cc(F)c(-n2cc(-c3cccc(F)c3)nc2NC(=O)c2ccc(OC(F)F)cc2)c(F)c1` [Example 10, N-[1-(2,6-Difluoro-4-methoxyphenyl)-4-(3-fluorophenyl)-1H-imidazol-2-yl]-4-(difluoromethoxy)benzamide]: the results for the EC50 at human FPR2 and at human FPR1 were 7 nM and 200 nM, respectively.
In the case of `COc1cc(F)c(-n2cc(-c3ccc(Cl)cc3)nc2NC(=O)c2ccc(OC(F)F)cc2)c(F)c1` [Example 11, N-[4-(4-Chlorophenyl)-1-(2,6-difluoro-4-methoxyphenyl)-1H-imidazol-2-yl]-4-(difluoromethoxy)benzamide], the EC50 on human FPR2 was 24 nM; at human FPR1, 140 nM.
Taken in the same sequence, the figures for `COc1cc(F)c(-n2cc(-c3cccc(Cl)c3)nc2NC(=O)c2ccc(OC(F)F)cc2)c(F)c1` [Example 12, N-[4-(3-Chlorophenyl)-1-(2,6-difluoro-4-methoxyphenyl)-1H-imidazol-2-yl]-4-(difluoromethoxy)benzamide] were 15 nM and 450 nM.
Take `COc1cc(F)c(-n2c(NC(=O)c3ccc(OC(F)F)cc3)nc(-c3ccc(Cl)cc3)c2C)c(F)c1` [Example 13, N-[4-(4-Chlorophenyl)-1-(2,6-difluoro-4 methoxyphenyl)-5-methyl-1H-imidazol-2-yl]-4-(difluoromethoxy)benzamide]: the EC50 on human FPR2 came to 53 nM; on human FPR1, 550 nM.
Turning to `COc1ccc(-c2cn(-c3c(F)cc(OC)cc3F)c(NC(=O)c3ccc(OC(F)F)cc3)n2)cc1` [Example 14, N-[1-(2,6-Difluoro-4-methoxyphenyl)-4-(4-methoxyphenyl)-1H-imidazol-2-yl]-4-(difluoromethoxy)benzamide], the figures for the EC50 on human FPR2 and on human FPR1 were 39 nM and 160 nM, respectively.
Taken in the same sequence, the figures for `COc1cc(F)c(-n2cc(-c3ccc(C)cc3)nc2NC(=O)c2ccc(OC(F)F)cc2)c(F)c1` [Example 15, N-[1-(2,6-Difluoro-4-methoxyphenyl)-4-(4-methylphenyl)-1H-imidazol-2-yl]-4-(difluoromethoxy)benzamide] were 23 nM and 130 nM.
In the same order, the values of `COc1cc(F)c(-n2cc(-c3ccc(C#N)cc3)nc2NC(=O)c2ccc(OC(F)F)cc2)c(F)c1` [Example 16, N-[4-(4-Cyanophenyl)-1-(2,6-difluoro-4-methoxyphenyl)-1H-imidazol-2-yl]-4-(difluoromethoxy)benzamide] are 27 nM and 230 nM.
As to `COc1cc(F)c(-n2cc(-c3cccc(C#N)c3)nc2NC(=O)c2ccc(OC(F)F)cc2)c(F)c1` [Example 17, N-[4-(3-Cyanophenyl)-1-(2,6-difluoro-4-methoxyphenyl)-1H-imidazol-2-yl]-4-(difluoromethoxy)benzamide], the EC50 on human FPR2 turned out to be 5 nM; on human FPR1, 46 nM.
On to `COc1cc(F)c(-n2cc(-c3ccc(Cl)c(Cl)c3)nc2NC(=O)c2ccc(OC(F)F)cc2)c(F)c1` [Example 18, N-[4-(3,4-Dichlorophenyl)-1-(2,6-difluoro-4-methoxyphenyl)-1H-imidazol-2-yl]-4-(difluoromethoxy)benzamide], for which the figures for the EC50 on human FPR2 and on human FPR1 were 51 nM and 400 nM, respectively.
With `COc1ccc(-n2cc(-c3ccc4c(c3)CCO4)nc2NC(=O)c2ccc(OC(F)F)cc2)cc1` [Example 19, 4-(Difluoromethoxy)-N-[4-(2,3-dihydro-1-benzofuran-5-yl)-1-(4-methoxyphenyl)-1H-imidazol-2-yl]benzamide], the EC50 on human FPR2 turned out to be 28 nM; at human FPR1, 93 nM.
In the same order, the values of `COc1ccc(-n2cc(-c3ccnc(Cl)c3)nc2NC(=O)c2ccc(OC(F)F)cc2)cc1` [Example 20, N-[4-(2-Chloropyridin-4-yl)-1-(4-methoxyphenyl)-1H-imidazol-2-yl]-4-(difluoromethoxy)benzamide] are 5 nM and 19 nM.
For `COc1ccc(-n2cc(-c3ccc(F)cc3F)nc2NC(=O)c2ccc(OC(F)F)cc2)cc1` [Example 21, 4-(Difluoromethoxy)-N-[4-(2,4-difluorophenyl)-1-(4-methoxyphenyl)-1H-imidazol-2-yl]benzamide], the EC50 at human FPR2 stood at 29 nM; on human FPR1, 76 nM.
In the case of `COc1ccc(-n2cc(-c3ccc4sccc4c3)nc2NC(=O)c2ccc(OC(F)F)cc2)cc1` [Example 22, N-[4-(1-Benzothiophen-5-yl)-1-(4-methoxyphenyl)-1H-imidazol-2-yl]-4-(difluoromethoxy)benzamide], the EC50 came out at 86 nM at human FPR2 and 140 nM at human FPR1.
